Assay results: patent publication US9023998B2, “Near infrared fluorogen and fluorescent activating proteins for in vivo imaging and live-cell biosensing” (Carnegie Mellon University, priority 2013, dated 2015)

Test system: mL9.5 (SEQ. ID. NO. 21)
Assay: Fluorogen activation by purified monomeric FAP mL9.5 (spectra)
Assay type: biochemical
Conditions: purified protein, about 300 nM fluorogen, PBS pH 7.4
Text: While the peptide linker that joins the VL units in dL9.2 (SEQ. ID. NO. 2) and dL9.5 (SEQ. ID. NO. 3) enhance fluorogen binding affinity and binding rate by reducing the entropic cost of assembly around the fluorogen, the linker is not strictly necessary for fluorogenic activation. […] In panels C and D, corresponding spectra from mL9.5:SKC602 (SEQ. ID. NO. 21:SKC602) and mL9.5:SKC728 (SEQ. ID. NO. 21:SKC728) fluoromodules are shown. Spectra were obtained using a Quantamaster™ fluorometer (PTI) equipped with dual monochromators on both excitation and emission light paths.
To facilitate ligase-dependent cloning methods, the above procedure was repeated for dL9.5 (SEQ. ID. NO. 6), using otherwise identical primers that appended BspEI (TCCGGA) (SEQ. ID. NO. 25) and BamHI (GGATCC) (SEQ. ID. NO. 26) sites directly at the 5′ and 3′ termini, respectively, of the dL9.5 gene (SEQ. ID. NO. 6). The resulting plasmid, designated pPNL9z-dL9.5, could be digested with BspEI (SEQ. ID. NO. 25) and BamHI (SEQ. ID. NO. 26) to produce a yeast expression vector backbone capable of receiving inserts with like-digested termini. […]

| Structure (SMILES) | Induction of NIR fluorescence by mL9.5 |
| --- | --- |
| CN(C)c1ccc(C(/C=C/c2ccc(N(C)CCCCC(=O)NC(CCS(=O)(=O)O)C(=O)O)cc2)=C2C=CC(=[N+](C)C)C=C2)cc1 (centres unmarked) [SKC728] | induce NIR fluorescence |
| CN(C)c1ccc(/C=C/C(=C2C=CC(=[N+](C)C)C=C2)c2ccc(N(C)C)cc2)cc1 [SKC602, (E)-N-(4-(1,3-bis(4-(dimethylamino)phenyl)allylidene)cyclohexa-2,5-dien-1-ylidene)-N-methylmethanaminium] | induce NIR fluorescence |
